Test results reported in US7425580B2, “(Diaryl-methyl)-malononitriles and their use as estrogen receptor ligands” (Wyeth, priority 2004, dated 2008).

Key:
[1] = test system: NF-κB target genes (MHC invariant chain, VCAM-1, RANTES, TNF-α mRNA); test: Liver inflammatory gene expression (real time RT-PCR) in ovariectomized C57BL/6 mice on atherogenic diet; format: in vivo; conditions: EE 0.01 mg/kg daily
Method: (§1) Ovariectomized C57BL/6 mice (16-20 g) (Taconic) were separated into groups of 8. After 5-7 days of recuperation, the mice were fed a chow diet or an atherogenic diet (15.75% fat, 1.25% cholesterol and 0.5% sodium cholate) (Purina diet #21539). EE or test compound was administered once daily by gavage in a methylcellulose/tween vehicle (0.1 ml per mouse) for 5 weeks. At the end of the experimental period, the liver was collected and uterine wet weight was recorded.
Liver total RNA was prepared by using Trizol reagent (BRL). Estrogen and compound regulation of NF-κB target genes were verified by real time RT-PCR using an ABI PRISM 7700 Sequence Detection System according to the manufacturer's protocol (Applied Biosystems). The data was analyzed using the Sequence Detector v1.7 software (Applied Biosystems) and normalized to GAPDH using the Applied Biosystems primer set.
To determine the ability of estrogens to regulate the development of diet-induced inflammation in the liver, gene expression changes resulting from the atherogenic diet were monitored. Ovariectomized C57BL/6 mice were fed either a chow or atherogenic diet and treated daily with EE (0.01 mg/kg) or test compound (10 mg/kg) (Table 3).

uterine wet weight = test: Uterine wet weight increase in ovariectomized C57BL/6 mice; format: in vivo; conditions: EE 0.01 mg/kg/day, test compound 10 mg/kg/day, gavage, 5 weeks; for Uterine Wet Weight Increase, Fold Increase: compared to vehicle control
Method: as §1, with “recorded. To determine the ability of estrogens to regulate the development of diet-induced inflammation in the liver, gene expression changes resulting from the atherogenic diet were monitored. Ovariectomized C57BL/6 mice were fed either a chow or atherogenic diet and treated daily with EE (0.01 mg/kg) or test compound (10 mg/kg) (Table 3).” for “recorded.”

IL-6 = IL-6 expression (ELISA) in Ad5-wt-ER infected HAECT-1 cells (IL-1β stimulated); format: cell-based, human; conditions: for IL-6 Efficacy: relative to maximal inhibition observed with E2
Method: (§2) T-175 flasks of 100% confluent HAECT-1 cells (immortalized human aortic endothelial cells) were washed with 8 ml of HBSS (HEPES buffered saline solution) and infected for four hours with 6 ml of a 1:10 dilution of Ad5-wt-hERα virus (an adenovirus transfection vector that mediates CMV promoter driven expression of human ERα) in phenol red free Endothelial Cell Basal medium (Clonetics, San Diego Calif., Catalog # CC-3129) containing 0.25% bovine serum albumin (EBM-BSA). After four hours, cells were washed with EBM-BSA and incubated overnight in the same medium. Following overnight incubation, cells were washed with EBM-BSA and infected for 2 hours with 6 ml of a 1:10 dilution of Ad5-3×(NFKκB).Luc virus (Adenovirus luciferase expression vector driven by 3 repeats of the MHC NFκβ site 5′ to the thymidine kinase promoter) in EBM-BSA. After two hours, cells were washed and incubated at 34° C. for 1 hour. Cells were then washed, trypsinized, counted and resuspended in 95% FBS/5% dimethylsulfoxide at a concentration of 4×10^6 cells/ml, frozen as 1 or 5 ml aliquots in cryo-vials and stored at −150° C. Control (no ER infection) cells were processed as above without Ad5-wt-hERα virus infection.
(§3) ERα infected HAECT-1 cells or control cells were thawed, diluted 42× in warm EBM-BSA, plated into 96-well plates at 0.1 ml/well and incubated for 4 h at 34° C. Test compounds were added to the cells as 2× stocks in EBM-BSA containing 2 ng/ml IL-1β (R&D Systems) and plates were returned to the incubator (34° C.). After 15-20 h, 100 μl aliquots of media were removed from the cells and assayed for IL-6 content using a BioSource human IL-6 ELISA Kit. Cells were subsequently washed with 300 μl of Dulbecco's phosphate buffered saline and lysed in 50 μl of Cell Culture Lysis Reagent (Promega). Luciferase was determined on a Wallac Victor^2 Luminometer (Gaithersburg, Md.) using 10 μl of lysate and mixing with 100 μl of Promega Luciferase Assay reagent. Creatine kinase was determined from the rate of increase in A340 following addition of 100 μl of CK assay reagent (Sigma, cat. No 47-10) to the remainder of the cell lysate.
(§4) For IC50 and EC50 calculations, mean IL-6, luciferase or CK values versus log10 of the compound concentration were fitted to a four parameter logistic equation. The IC50/EC50 value, ‘Hill slope’, upper and lower limits of the curve were iteratively estimated.

NF-κB [2] = test: NF-κB luciferase reporter in non ER infected HAECT-1 cells; format: cell-based, human
Method: T-175 flasks of 100% confluent HAECT-1 cells (immortalized human aortic endothelial cells) were washed with 8 ml of HBSS (HEPES buffered saline solution) and infected for four hours with 6 ml of a 1:10 dilution of Ad5-wt-hERα virus (an adenovirus transfection vector that mediates CMV promoter driven expression of human ERα) in phenol red free Endothelial Cell Basal medium (Clonetics, San Diego Calif., Catalog # CC-3129) containing 0.25% bovine serum albumin (EBM-BSA). After four hours, cells were washed with EBM-BSA and incubated overnight in the same medium. […] Cells were then washed, trypsinized, counted and resuspended in 95% FBS/5% dimethylsulfoxide at a concentration of 4×10^6 cells/ml, frozen as 1 or 5 ml aliquots in cryo-vials and stored at −150° C. […]
ERα infected HAECT-1 cells or control cells were thawed, diluted 42× in warm EBM-BSA, plated into 96-well plates at 0.1 ml/well and incubated for 4 h at 34° C. […] Luciferase was determined on a Wallac Victor^2 Luminometer (Gaithersburg, Md.) using 10 μl of lysate and mixing with 100 μl of Promega Luciferase Assay reagent. Creatine kinase was determined from the rate of increase in A340 following addition of 100 μl of CK assay reagent (Sigma, cat. No 47-10) to the remainder of the cell lysate. […]

creatine kinase = test: Creatine kinase expression in Ad5-wt-ER infected HAECT-1 cells; format: cell-based, human; conditions: for IC50: Homo sapiens, HAECT1, stimulation of CK; for CK Efficacy: relative to maximal stimulation observed with E2
Method: as §2, §3, §4

NF-κB [3] = test: NF-κB luciferase reporter in Ad5-wt-ER infected HAECT-1 cells (IL-1β stimulated); format: cell-based, human; conditions: for Emax: relative to maximal inhibition observed with E2, read-out: NF-κB Efficacy
Method: as §2, §3, §4

[4] = Ad5-wt-ER infected HAECT-1 cells
[5] = Homo sapiens, HAECT1, Ad5-wt-ER infected HAECT-1 cells

Compound | IL-6 Efficacy (IL-6; [4]) [%] | IC50 (IL-6; [5]) [µM] | IC50 (creatine kinase) [µM] | CK Efficacy (creatine kinase) [%] | IC50 (NF-κB [3]; [5]) [µM] | Emax (NF-κB [3]; [5]) [%] | further results
C#C[C@]1(O)CC[C@H]2[C@@H]3CCc4cc(O)ccc4[C@H]3CC[C@@]21C [EE, 17α-ethinyl-17β-estradiol, reference compound] |  |  |  |  |  |  | Atherogenic diet induction of mRNA for MHC invariant chain, VCAM-1, RANTES and TNF-α in liver [1]: strongly suppressed; Uterine Wet Weight Increase, Efficacy (uterine wet weight): 100%; Uterine Wet Weight Increase, Fold Increase (uterine wet weight): 5.0
COc1ccccc1C(c1cccc2ccccc12)C(C#N)C#N (stereo not drawn) [Ex. 1, 2-[(2-Methoxyphenyl)(1-naphthyl)methyl]malononitrile] | 118 | 1.22 | 0.0087 | 27 |  |  | NF-κB IC50 (NF-κB [2]): inactive
COc1cccc(C(c2cccc3ccccc23)C(C#N)C#N)c1 (stereo not drawn) [Ex. 3, 2-[(3-Methoxyphenyl)(1-naphthyl)methyl]malononitrile] | 92 | 1.04 |  |  | 0.853 | 138 | 
Cc1ccccc1C(c1cccc2ccccc12)C(C#N)C#N (stereo not drawn) [Ex. 4, 2-[(2-Methylphenyl)(1-naphthyl)methyl]malononitrile] | 127 | 1.01 |  |  |  |  | 
Cc1ccc(C(c2cccc3ccccc23)C(C#N)C#N)cc1 (stereo not drawn) [Ex. 5, 2-[(4-Methylphenyl)(1-naphthyl)methyl]malononitrile] |  |  |  |  | 1.66 | 154 | 
COc1ccc(C(c2cccc3ccccc23)C(C#N)C#N)cc1 (stereo not drawn) [Ex. 6, 2-[(4-Methoxyphenyl)(1-naphthyl)methyl]malononitrile] |  |  |  |  | 1.64 | 137 | 
COc1ccccc1C(c1cccc2ccccc12)C(C)(C#N)C#N (stereo not drawn) [Ex. 7, 2-[(2-Methoxyphenyl)(1-naphthyl)methyl]-2-methylmalononitrile] | 144 | 0.024 | 0.0307 | 28 | 0.0099 | 98 | IC50 (NF-κB [3]; [4]): 0.0175 µM; NF-κB IC50 (NF-κB [2]): inactive; melting point: 175 to 177 °C; Uterine Wet Weight Increase, Efficacy (uterine wet weight): 18%; Uterine Wet Weight Increase, Fold Increase (uterine wet weight): 2.2
N#CC(C#N)C(c1cccc2ccccc12)c1cccc2ccccc12 [Ex. 8, 2-[Di(1-naphthyl)methyl]malononitrile] | 152 | 0.56 |  |  | 0.768 | 176 | IC50 (NF-κB [3]; [4]): 0.581 µM; melting point: 179 to 181 °C
C[C@]12CC[C@@H]3c4ccc(O)cc4CC[C@H]3[C@@H]1CC[C@@H]2O [Example E2, 17β-estradiol, reference compound] | 100 |  | 0.0058 | 100 |  |  | IC50 (IL-6; [4]): 0.0017 µM
